{"source": "patent US20110104145A1", "about": "“METHOD FOR THE TREATMENT OR PROPHYLAXIS OF CHRONIC INFLAMMATORY DISEASES” (priority 2008, published 2011)"}
{"system": "binding between IgA and CD89", "assay": "Blocking assay: two-dimensional polymorphonuclear cell migration to IgA-coated beads", "assay_type": "cell-based, human", "conditions": "PKH67-polymorphonuclear cells, blocker 1-100 μg/ml, 20' at 37° C., assay of example 4", "method": "(§1) FIG. 6. IgA-induced migration can be reduced by interfering with IgA-CD89 interactions. Percentage inhibition of polymorphonuclear cell migration in the presence of 3 different anti-FcαRI mAb (white bars), 6 peptides that mimic either the IgA binding site on CD89 or the CD89 binding site on IgA (black bars) or a soluble variant of CD89 or FcαRI (sFcalphaRI, grey bar).\n(§2) PKH67-polymorphonuclear cells (2.5×10^5 cells/well) were seeded in 96 wells flat bottom plates (Greiner), after which immunoglobulin-coated beads (10 μl/well) were added. For binding assays, cells were kept at 4° C. For migration assays, cells were incubated for 20′ 37° C., after which cell suspensions were collected and beads were washed 2 times with PBS to remove unbound PKH67-polymorphonuclear cells. Beads were incubated with a buffer containing 2.0 g/l hexadecyltrimethyl ammonium bromide, 1.0 g/l tween 20, 2.0 g/l BSA and 7.44 g/l EDTA in PBS to lyse bound PKH67-polymorphonuclear cells. Fluorescence was measured using 485 excitation and 520 emission filters (Fluostar Galaxy, BMG Labtechnologies, Offenburg, Germany).\n(§3) The blocking potential of anti-FcαRI antibodies and/or sFcαRI and/or peptides that mimic either the IgA binding site on CD89 or the CD89 binding site on IgA was investigated using a 2-dimensional polymorphonuclear cells migration assay as detailed in example 4. For that purpose, PKH67-polymorphonuclear cells were incubated with different concentrations (ranging from 1-100 μg/ml in RPMI) of either anti-FcαRI blocking antibodies or with peptides mimicking the IgA binding site on CD89 for 20 minutes at 37° C. IgA-coated beads were incubated with different concentrations (ranging from 1-100 μg/ml in RPMI) of peptides mimicking the CD89 binding site on IgA for 20 minutes at 37° C. PKH67-polymorphonuclear cells (2.5×10^5 cells/well) that had not been incubated (as control) or PKH67-polymorphonuclear cells that had been incubated with blocking antibodies or peptides were seeded in 96 wells flat bottom plates (Greiner). Either non-incubated IgA-coated beads, or IgA-coated beads that had been incubated with peptides were added (10 μl/well). Cells were then incubated for 20′ at 37° C., after which cell suspensions were collected and beads were washed 2 times with PBS to remove unbound PKH67-polymorphonuclear cells. Beads were incubated with a buffer containing 2.0 g/l hexadecyltrimethyl ammonium bromide, 1.0 g/l Tween 20, 2.0 g/l BSA and 7.44 g/l EDTA in PBS to lyse bound PKH67-polymorphonuclear cells. Fluorescence was measured using 485 excitation and 520 emission filters (Fluostar Galaxy, BMG Labtechnologies, Offenburg, Germany) to determine the number of polymorphonuclear cells that had bound to IgA-coated beads. Percentage blocking was determined using the following equation: 100−(number of bound cells in blocking situation/number of bound cells without blocking×100) %."}
{"molecule": "REIGRRLKFWNETDP [Fc alpha 113]", "blocking of the interaction between IgA and CD89": "up to 19%"}
{"molecule": "EDLLLGSEA [IgA CH2]", "blocking of the interaction between IgA and CD89": "up to 23%"}
{"system": "binding between IgA and CD89", "assay": "Blocking assay: two-dimensional polymorphonuclear cell migration to IgA-coated beads", "assay_type": "cell-based, human", "conditions": "polymorphonuclear cells", "method": "as §1, §2, §3"}
{"molecule": "YRIGHYRFR", "blocking of the IgA-CD89 interaction / reduction of polymorphonuclear cell migration to IgA-beads (in words)": "performed well"}
{"molecule": "SCMVGHEALPLAFTQCT [PEO-46#7,8]", "blocking of the IgA-CD89 interaction / reduction of polymorphonuclear cell migration to IgA-beads (in words)": "provided good results"}
{"molecule": "sFcαRI: soluble form of FcαRI: extracellular part (ecto domain) of FcαRI expressed in 293T cells", "blocking of the IgA-CD89 interaction / reduction of polymorphonuclear cell migration to IgA-beads (in words)": "efficiently block the interaction"}
{"molecule": "LKFWNETDP", "blocking of the IgA-CD89 interaction / reduction of polymorphonuclear cell migration to IgA-beads (in words)": "performed well"}
{"molecule": "AQAIREAYL", "blocking of the IgA-CD89 interaction / reduction of polymorphonuclear cell migration to IgA-beads (in words)": "performed well"}
{"molecule": "GRYQCQYRIGHYRFRYSD [Sym-060]", "blocking of the IgA-CD89 interaction / reduction of polymorphonuclear cell migration to IgA-beads (in words)": "performed somewhat less but was still found useful"}
{"system": "polymorphonuclear cells", "assay": "Chemotaxis assay with supernatants of IgA-bead migration experiments", "assay_type": "cell-based, human", "conditions": "mAb 100 μg/ml; U75302 10 μM in ethanol; 40 minutes at 37° C.", "method": "B) Supernatant was collected after addition of IgA-beads, and migration of freshly isolated polymorphonuclear cells to collected supernatant was measured in the presence of anti-BLTR1 (LTB4 receptor), anti-IL-8 or an isotype mAb control. Additionally, either an LTB4 receptor antagonist (U75302 in ethanol) or ethanol alone was added. Migration to supernatant in the absence of inhibitors was set at 100%.\nChemotaxis assays were essentially performed as described (Frevert et al., J. Immunol. Methods 213, 41 (1998)), modified for use in a 48 well Neuroprobe blind well chemotaxis chamber (Gaithersburg, Md.). Briefly, bottom wells were filled with supernatants of migration experiments (25 μl), and covered with a 3 μm pore polycarbonate filter (Neuroprobe). Purified LTB4 (Sigma) or IL-8 (Peprotech, Rocky Hill, N.J.) were used as positive controls. Top wells were filled with 50 μl calcein AM-labeled polymorphonuclear cells (1×10^6/ml). After a 40 minutes incubation period at 37° C., cells that had migrated towards the lower compartments were quantified with a fluorimeter (485 excitation/520 emission filters). To inhibit IL-8 mediated migration, experiments were conducted in the presence of 100 μg/ml blocking anti-IL-8 mAb (BD Biosciences). LTB4-mediated migration was investigated by blocking LTB4 receptors with 100 μg/ml anti-BLTR1 mAb (BD Biosciences). […]"}
{"molecule": "CCCCC/C=C\\C[C@@H](O)/C=C/c1cccc(C[C@@H](O)CCCCO)n1", "note": "[receptor antagonist, U75302]", "chemotactic activity of supernatant of IgA-bead migration experiments": "reduced"}
{"system": "polymorphonuclear cells", "assay": "Human skin migration assay (ex vivo skin graft, IgA-coated beads)", "assay_type": "cell-based", "conditions": "ex vivo mammary skin graft, beads injected intracutaneously, overnight at 37° C.", "method": "A full thickness mammary skin graft (epidermis and dermis) was placed in an ex-vivo tissue incubation chamber (method adapted from Oosterling, S J et al. Ann Surg. 2008; 247(1):85-94). 5 μl of IgA- or BSA-coated beads (17.5 μg/μl) were injected intracutaneously via the dermis, followed by addition of PKH-67 labeled polymorphonuclear cells (4×10^6 cells/well) to the wells. Due to the short half-life of polymorphonuclear cells after isolation, cells were supplemented with IFN-γ (300 units/ml; Boehringer Ingelheim, Alkmaar, The Netherlands). Skin was incubated overnight at 37° C. Biopsies of the injected skin were taken and snap frozen. Sections of biopsies were analysed with bright field and fluorescence microscopy."}
{"molecule": "GRYQAQYRIGHYRFRYSD [PEO-50#8,9, EF loop peptide (CD89 75-92)]", "migration of polymorphonuclear cells to IgA-coated beads in human skin": "completely prevent migration"}
{"molecule": "sFcαRI: soluble form of FcαRI: extracellular part (ecto domain) of FcαRI expressed in 293T cells", "migration of polymorphonuclear cells to IgA-coated beads in human skin": "completely prevent migration"}
{"molecule": "SSMVGHEALPLAFTQKT [PEO-45#7,8, 17-mer stretch (amino acids 431-447) selected from the Fc region of IgA]", "migration of polymorphonuclear cells to IgA-coated beads in human skin": "completely prevent migration"}
